Measured values reported in patent US5624812A, “Method for measuring carbon dioxide and reagent therefor” (Toyo Boseki Kabushiki Kaisha, priority 1993, dated 1997).

How the values were obtained:
[1] = molecular target: T1, phosphoenolpyruvate carboxylase yielded by Acetobacter hansenii IFO 14820 (ATCC 35959) (Novacetimonas hansenii, UniProt A0ABQ0SBC7)
T1 sequence (A0ABQ0SBC7 1-933): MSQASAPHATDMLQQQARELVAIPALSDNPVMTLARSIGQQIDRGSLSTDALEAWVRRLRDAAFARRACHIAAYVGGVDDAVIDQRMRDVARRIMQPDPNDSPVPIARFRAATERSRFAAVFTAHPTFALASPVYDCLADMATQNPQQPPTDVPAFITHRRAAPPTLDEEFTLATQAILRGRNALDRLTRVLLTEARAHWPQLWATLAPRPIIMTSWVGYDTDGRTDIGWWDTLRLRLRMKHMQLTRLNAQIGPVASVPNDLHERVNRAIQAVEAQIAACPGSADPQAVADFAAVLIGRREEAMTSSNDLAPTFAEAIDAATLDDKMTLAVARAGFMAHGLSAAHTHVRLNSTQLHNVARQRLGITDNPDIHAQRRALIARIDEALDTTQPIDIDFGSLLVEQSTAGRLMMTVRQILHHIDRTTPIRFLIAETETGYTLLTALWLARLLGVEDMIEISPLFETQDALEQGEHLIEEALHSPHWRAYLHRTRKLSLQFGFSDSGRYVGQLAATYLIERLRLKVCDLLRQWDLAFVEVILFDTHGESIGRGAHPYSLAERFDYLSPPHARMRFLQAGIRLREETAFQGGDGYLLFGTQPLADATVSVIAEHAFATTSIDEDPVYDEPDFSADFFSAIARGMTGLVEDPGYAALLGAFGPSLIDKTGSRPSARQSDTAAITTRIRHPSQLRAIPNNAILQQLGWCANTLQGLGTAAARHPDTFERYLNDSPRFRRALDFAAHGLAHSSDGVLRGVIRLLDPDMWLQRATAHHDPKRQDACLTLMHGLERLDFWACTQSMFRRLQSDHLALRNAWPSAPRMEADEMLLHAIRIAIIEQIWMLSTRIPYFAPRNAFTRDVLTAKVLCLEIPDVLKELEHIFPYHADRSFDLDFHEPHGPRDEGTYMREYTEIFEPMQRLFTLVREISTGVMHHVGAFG
Experimental: A reaction mixture (2.9 ml) containing 50 mM Tris-HCl, 10 mM Na2 CO3, 3.2 mM phosphoenolpyruvic acid, 100 mM MgSO4, 0.14 mM NADH and 50 U/ml malate dehydrogenase is prepared in a cuvette (d=1 cm) and preheated at 30° C. for about 5 minutes. An enzyme solution (0.1 ml) is added thereto and the mixture is gently stirred. A change in absorbance at 340 nm is recorded for 2-3 minutes with a spectrophotometer using water adjusted to 30° C. as a control, and change in absorbance per minute is calculated from the initial linear portion thereof (ΔOD test). A blank test is performed by using 50 mM phosphate buffer (pH 7.0) in place of the enzyme solution and following the steps to determine changes in absorbance per minute (ΔOD blank).

[2] = substrate: C=C(OP(=O)(O)O)C(=O)O; assay: purified protein, by the assay type; conditions: pH 7.0; 30.0 °C

Nc1ncnc2c1ncn2[C@@H]1O[C@H](COP(=O)(O)OP(=O)(O)O)[C@@H](O)[C@H]1O [ADP]
Inhibition by ADP [1]: Not inhibited

CC(=O)SCCNC(=O)CCNC(=O)[C@H](O)C(C)(C)COP(=O)(O)OP(=O)(O)OC[C@H]1O[C@@H](n2cnc3c(N)ncnc32)[C@H](O)[C@@H]1OP(=O)(O)O [acetyl CoA]
Activation by acetyl CoA [1]: Not activated

B1: phosphoenolpyruvate carboxylase yielded by Acetobacter hansenii IFO 14820 (ATCC 35959) (Novacetimonas hansenii) (protein)
chain: T1 sequence (A0ABQ0SBC7 1-933)
Km [2]: 210 µM
